Read-outs that look alike come from different tables or passages of the source.
How the values were obtained:
TT cells = assay: TT Cell Proliferation Assay (WST-8, 8 days); type: cell-based; settings: Homo sapiens, 192 h, growth inhibition in TT cells, read-out: TT Cellular Activity
In short: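 IC50 was derived from absorbance at 450 nm after 5 h with WST-8, following 8 days' incubation at 37 °C. Final compound levels spanned 0.0005–5 μM in 0.5% DMSO. TT cells were seeded at 6,000 per well in 10% FBS RPMI-1640 and left to attach for 24 h beforehand.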

BAF3-KIF5B-RET cells = target: T1, BAF3-KIF5B-RET cells (Homo sapiens, UniProt P07949); assay: BAF3-KIF5B-RET Cell proliferation assay (CellTiter-Glo, 72 hours); type: cell-based; settings: growth inhibition, read-out: BA/F3-KIF5B-RET Cellular activity
T1 construct: fused on or other part: P33176 (Kinesin-1 heavy chain)
T1 sequence (P07949 whole entry, change not shown, the tested form may be a part): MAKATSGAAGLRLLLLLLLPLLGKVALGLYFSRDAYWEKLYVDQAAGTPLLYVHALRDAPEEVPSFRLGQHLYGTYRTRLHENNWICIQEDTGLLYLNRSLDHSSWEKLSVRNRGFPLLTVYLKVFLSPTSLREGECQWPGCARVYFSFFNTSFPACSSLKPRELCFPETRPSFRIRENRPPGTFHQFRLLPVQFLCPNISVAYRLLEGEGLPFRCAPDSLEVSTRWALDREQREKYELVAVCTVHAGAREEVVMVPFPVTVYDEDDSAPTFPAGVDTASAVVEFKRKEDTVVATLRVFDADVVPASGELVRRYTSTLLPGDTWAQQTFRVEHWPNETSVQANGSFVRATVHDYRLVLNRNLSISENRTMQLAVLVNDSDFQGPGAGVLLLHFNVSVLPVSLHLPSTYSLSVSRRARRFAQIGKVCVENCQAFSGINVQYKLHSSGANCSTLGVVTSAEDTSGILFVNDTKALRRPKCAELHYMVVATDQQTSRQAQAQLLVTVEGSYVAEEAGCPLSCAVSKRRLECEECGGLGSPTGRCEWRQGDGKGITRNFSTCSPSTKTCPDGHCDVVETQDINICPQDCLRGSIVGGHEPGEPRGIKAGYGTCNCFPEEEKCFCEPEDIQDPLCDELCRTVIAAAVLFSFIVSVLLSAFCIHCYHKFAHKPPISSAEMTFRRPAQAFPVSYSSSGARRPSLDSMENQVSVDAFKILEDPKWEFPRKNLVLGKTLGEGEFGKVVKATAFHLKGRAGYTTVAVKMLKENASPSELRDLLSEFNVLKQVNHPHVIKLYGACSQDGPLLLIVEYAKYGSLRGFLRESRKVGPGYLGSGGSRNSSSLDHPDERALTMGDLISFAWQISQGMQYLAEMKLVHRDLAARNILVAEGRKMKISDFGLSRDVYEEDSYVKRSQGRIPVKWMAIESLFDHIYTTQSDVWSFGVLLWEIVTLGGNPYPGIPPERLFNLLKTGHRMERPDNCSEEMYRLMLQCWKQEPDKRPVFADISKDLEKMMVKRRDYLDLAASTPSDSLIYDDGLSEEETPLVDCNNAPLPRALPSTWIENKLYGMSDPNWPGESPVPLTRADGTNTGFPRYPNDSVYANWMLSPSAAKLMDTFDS
In short: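 Cells seeded at 2,000/well in RPMI-1640 with 10% FBS and left 24 h at 37 °C, then exposed 72 h to nine compound levels (final 1 μM down to 0.00015 μM, 0.1% DMSO). CellTiter-Glo luminescence gave viability versus DMSO wells, from which IC50 was fitted.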

human KDR kinase = target: T2, human KDR kinase (Homo sapiens, UniProt P35968); assay: KDR Kinase Assay (LanthaScreen TR-FRET enzymatic assay); type: biochemical; settings: 1.2 nM KDR, 92 μM ATP
T2 construct: purchased Carna 08-191
T2 sequence (P35968 20-1356): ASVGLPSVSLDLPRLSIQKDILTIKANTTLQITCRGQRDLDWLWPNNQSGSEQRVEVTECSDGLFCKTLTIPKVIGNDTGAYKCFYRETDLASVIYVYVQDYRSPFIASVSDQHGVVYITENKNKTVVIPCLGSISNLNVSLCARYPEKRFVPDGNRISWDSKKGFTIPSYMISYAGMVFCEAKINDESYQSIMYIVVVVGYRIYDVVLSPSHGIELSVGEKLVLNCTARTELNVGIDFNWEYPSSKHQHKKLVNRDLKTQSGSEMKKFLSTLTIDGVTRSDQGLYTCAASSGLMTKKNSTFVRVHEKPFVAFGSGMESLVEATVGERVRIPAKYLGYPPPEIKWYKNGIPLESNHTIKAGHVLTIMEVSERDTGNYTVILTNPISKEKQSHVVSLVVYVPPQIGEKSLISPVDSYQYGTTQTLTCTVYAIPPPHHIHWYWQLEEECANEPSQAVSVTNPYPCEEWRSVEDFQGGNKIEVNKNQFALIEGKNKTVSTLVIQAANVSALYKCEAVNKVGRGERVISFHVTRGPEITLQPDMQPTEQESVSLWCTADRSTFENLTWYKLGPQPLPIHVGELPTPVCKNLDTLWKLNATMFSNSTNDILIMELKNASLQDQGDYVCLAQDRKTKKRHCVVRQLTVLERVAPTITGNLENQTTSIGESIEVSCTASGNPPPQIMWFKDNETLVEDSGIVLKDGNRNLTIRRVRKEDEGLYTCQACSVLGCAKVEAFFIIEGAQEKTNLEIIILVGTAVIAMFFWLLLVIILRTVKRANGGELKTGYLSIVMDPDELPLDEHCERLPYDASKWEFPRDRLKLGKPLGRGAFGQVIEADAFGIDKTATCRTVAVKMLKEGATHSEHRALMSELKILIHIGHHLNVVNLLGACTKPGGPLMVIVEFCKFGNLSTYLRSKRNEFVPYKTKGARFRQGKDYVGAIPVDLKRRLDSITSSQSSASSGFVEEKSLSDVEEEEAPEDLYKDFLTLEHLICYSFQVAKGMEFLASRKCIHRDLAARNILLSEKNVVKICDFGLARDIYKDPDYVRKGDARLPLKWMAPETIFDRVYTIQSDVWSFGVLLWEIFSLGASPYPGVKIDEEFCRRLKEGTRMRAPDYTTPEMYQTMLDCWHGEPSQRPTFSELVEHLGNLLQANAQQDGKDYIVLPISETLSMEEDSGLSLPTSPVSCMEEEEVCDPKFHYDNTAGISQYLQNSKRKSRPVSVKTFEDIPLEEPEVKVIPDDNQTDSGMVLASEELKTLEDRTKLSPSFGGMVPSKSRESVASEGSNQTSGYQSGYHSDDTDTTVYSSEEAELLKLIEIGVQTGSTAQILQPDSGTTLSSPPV
In short: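 TR-FRET enzymatic format: after 15-min room-temperature compound pretreatment, 1.2 nM human KDR phosphorylated 3 μM FAM-P22 with 92 μM ATP (HEPES pH 7.5, 28° C., one hour). Reactions were quenched with EDTA buffer. IC50 came from nonlinear sigmoid fits of percent-of-vehicle signal ratios.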

human RET kinase = target: T3, human RET kinase (Homo sapiens, UniProt P07949); assay: RET Kinase Assay (LanthaScreen TR-FRET enzymatic assay); type: biochemical; settings: 7 nM RET, 23 μM ATP
T3 construct: purchased Carna 08-159
T3 sequence (P07949 29-1114): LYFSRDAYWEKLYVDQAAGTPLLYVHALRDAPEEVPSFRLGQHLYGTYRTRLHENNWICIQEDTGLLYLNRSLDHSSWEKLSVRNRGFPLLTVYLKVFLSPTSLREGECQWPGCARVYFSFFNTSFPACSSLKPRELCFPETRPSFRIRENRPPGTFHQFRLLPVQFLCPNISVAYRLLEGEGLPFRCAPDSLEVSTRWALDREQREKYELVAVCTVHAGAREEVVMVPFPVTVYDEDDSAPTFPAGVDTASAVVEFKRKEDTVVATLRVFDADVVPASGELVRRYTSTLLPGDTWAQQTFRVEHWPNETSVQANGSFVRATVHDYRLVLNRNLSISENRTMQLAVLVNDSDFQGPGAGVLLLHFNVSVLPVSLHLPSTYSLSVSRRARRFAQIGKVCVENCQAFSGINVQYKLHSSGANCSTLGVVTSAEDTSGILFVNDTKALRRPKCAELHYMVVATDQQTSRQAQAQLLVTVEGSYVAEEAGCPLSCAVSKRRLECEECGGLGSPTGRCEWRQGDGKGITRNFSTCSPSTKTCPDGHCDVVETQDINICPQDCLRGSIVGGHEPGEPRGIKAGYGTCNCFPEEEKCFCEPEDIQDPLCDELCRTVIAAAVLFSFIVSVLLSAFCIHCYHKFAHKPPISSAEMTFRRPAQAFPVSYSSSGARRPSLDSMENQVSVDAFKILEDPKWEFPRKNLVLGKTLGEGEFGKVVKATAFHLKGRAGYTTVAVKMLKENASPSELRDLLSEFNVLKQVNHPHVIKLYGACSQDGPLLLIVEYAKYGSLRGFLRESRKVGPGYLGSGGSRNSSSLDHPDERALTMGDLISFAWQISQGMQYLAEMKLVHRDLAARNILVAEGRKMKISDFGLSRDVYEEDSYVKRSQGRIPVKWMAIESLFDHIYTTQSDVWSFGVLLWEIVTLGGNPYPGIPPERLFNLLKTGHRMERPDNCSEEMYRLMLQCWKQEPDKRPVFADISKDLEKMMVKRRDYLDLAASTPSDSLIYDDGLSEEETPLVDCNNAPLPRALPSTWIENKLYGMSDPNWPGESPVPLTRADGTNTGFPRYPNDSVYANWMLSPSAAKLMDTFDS
In short: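 TR-FRET enzymatic read-out using 23 μM ATP, 3 μM FAM-P2 substrate and 7 nM human RET, after 15-min compound pretreatment at room temperature and a 1 h reaction at 28° C in HEPES pH 7.5 buffer. Percent of DMSO control fitted to nonlinear sigmoid curves for IC50.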

SMILES	GI50 (BAF3-KIF5B-RET cells) [nM]	IC50 (human KDR kinase) [nM]	IC50 (human RET kinase) [nM]	IC50 (TT cells; TT) [nM]	IC50 (TT cells) [nM]
CC(C)(O)COc1cc(-c2ccc(N3C[C@H]4CN(C(=O)c5c(F)cccc5Cl)C[C@H]4C3)nc2)c2c(C#N)cnn2c1 [Example 9, 4-(6-((3aR,6aS)-5-(2-chloro-6-fluorobenzoyl)hexahydropyrrolo[3,4-c]pyrrol-2(1H)-yl)pyridin-3-yl)-6-(2-hydroxy-2-methylpropoxy)pyrazolo[1,5-a]pyridine-3-carbonitrile]	10 to 50	50 to 100	≤ 10	≤ 10	
CC(C)(O)COc1cc(-c2ccc(N3C[C@@H]4[C@H](C3)[C@H]4NC(=O)c3ncccc3Cl)nc2)c2c(C#N)cnn2c1 [Example 37, 3-chloro-N-((1R,5S,6s)-3-(5-(3-cyano-6-(2-hydroxy-2-methylpropoxy)pyrazolo[1,5-a]pyridin-4-yl)pyridin-2-yl)-3-azabicyclo[3.1.0]hexan-6-yl)picolinamide]	> 100	> 100	≤ 10	50 to 100	
Cn1ccc(-c2cc(-c3cnc(N4C[C@@H]5C[C@@](C)(NC(=O)c6ncccc6Cl)C[C@@H]5C4)cn3)c3c(C#N)cnn3c2)n1 [Example 70, 3-chloro-N-((3aR,5s,6aS)-2-(5-(3-cyano-6-(1-methyl-1H-pyrazol-3-yl)pyrazolo[1,5-a]pyridin-4-yl)pyrazin-2-yl)-5-methyloctahydrocyclopenta[c]pyrrol-5-yl)picolinamide]	≤ 10	10 to 50	≤ 10	10 to 50	
CC(C)(O)COc1cc(-c2ccc(N3C[C@@H]4C[C@@](C)(NC(=O)c5c(F)cccc5Cl)C[C@@H]4C3)nc2)c2c(C#N)cnn2c1 [Example 96, 2-chloro-N-((3aR,5s,6aS)-2-(5-(3-cyano-6-(2-hydroxy-2-methylpropoxy)pyrazolo[1,5-a]pyridin-4-yl)pyridin-2-yl)-5-methyloctahydrocyclopenta[c]pyrrol-5-yl)-6-fluorobenzamide]	≤ 10	10 to 50	≤ 10	≤ 10	
COc1ccc(CN2C[C@@H]3CN(c4ccc(-c5cc(-c6cnn(C)c6)cn6ncc(C#N)c56)cn4)C[C@@H]3C2)cn1 [Example 12, 4-(6-((3aR,6aS)-5-((6-methoxypyridin-3-yl)methyl)hexahydropyrrolo[3,4-c]pyrrol-2(1H)-yl)pyridin-3-yl)-6-(1-methyl-1H-pyrazol-4-yl)pyrazolo[1,5-a]pyridine-3-carbonitrile]	≤ 10	10 to 50	≤ 10		10 to 50
Cn1cc(-c2cc(-c3cnc(N4C[C@@H]5[C@H](C4)[C@H]5NC(=O)c4ncccc4Cl)cn3)c3c(C#N)cnn3c2)cn1 [Example 102, 3-chloro-N-((1R,5S,6s)-3-(5-(3-cyano-6-(1-methyl-1H-pyrazol-4-yl)pyrazolo[1,5-a]pyridin-4-yl)pyrazin-2-yl)-3-azabicyclo[3.1.0]hexan-6-yl)picolinamide]	10 to 50	50 to 100	≤ 10		
Cn1cc(-c2cc(-c3cnc(N4C[C@@H]5[C@@H](CNC(=O)c6ncccc6Cl)[C@@H]5C4)cn3)c3c(C#N)cnn3c2)cn1 [Example 153, 3-chloro-N-(((1R,5S,6s)-3-(5-(3-cyano-6-(1-methyl-1H-pyrazol-4-yl)pyrazolo[1,5-a]pyridin-4-yl)pyrazin-2-yl)-3-azabicyclo[3.1.0]hexan-6-yl)methyl)picolinamide]	≤ 10	10 to 50	≤ 10		
CC(C)(O)COc1cc(-c2cnc(N3C[C@@H]4C[C@@](C)(NC(=O)c5ncccc5Cl)C[C@@H]4C3)cn2)c2c(C#N)cnn2c1 [Example 143, 3-chloro-N-((3aR,5s,6aS)-2-(5-(3-cyano-6-(2-hydroxy-2-methylpropoxy)pyrazolo[1,5-a]pyridin-4-yl)pyrazin-2-yl)-5-methyloctahydrocyclopenta[c]pyrrol-5-yl)picolinamide]	10 to 50	> 100	≤ 10		

More lines, main results first:

GI50 (BAF3-KIF5B-RET cells) [nM]	IC50 (human KDR kinase) [nM]	IC50 (human RET kinase) [nM]	SMILES	IC50 (TT cells; TT) [nM]	IC50 (TT cells) [nM]
≤ 10	10 to 50	≤ 10	CCOc1cc(-c2ccc(N3C4CC5CC3CC(NC(=O)c3ncccc3Cl)(C5)C4)nc2)c2c(C#N)cnn2c1 [Example 136, 3-chloro-N-((1R,3S,5s,7s)-2-(5-(3-cyano-6-ethoxypyrazolo[1,5-a]pyridin-4-yl)pyridin-2-yl)-2-azaadamantan-5-yl)picolinamide]	≤ 10	
10 to 50	≤ 10	≤ 10	Cn1cc(-c2cc(-c3ccc(N4C5CC6CC4CC(N)(C6)C5)nc3)c3c(C#N)cnn3c2)cn1 [Example 181, 4-(6-((1R,3S,5s,7s)-5-amino-2-azaadamantan-2-yl)pyridin-3-yl)-6-(1-methyl-1H-pyrazol-4-yl)pyrazolo[1,5-a]pyridine-3-carbonitrile]	≤ 10	
≤ 10	≤ 10	≤ 10	Cn1cc(-c2cc(-c3ccc(N4C5CC6CC4CC(C(=O)Nc4ncccc4Cl)(C6)C5)nc3)c3c(C#N)cnn3c2)cn1 [Example 90, (1R,3S,5s,7s)-N-(3-chloropyridin-2-yl)-2-(5-(3-cyano-6-(1-methyl-1H-pyrazol-4-yl)pyrazolo[1,5-a]pyridin-4-yl)pyridin-2-yl)-2-azaadamantane-5-carboxamide]	≤ 10	
≤ 10	≤ 10	≤ 10	Cn1cc(-c2cc(-c3ccc(N4C[C@@H]5CN(S(=O)(=O)c6c(F)cccc6Cl)C[C@@H]5C4)nc3)c3c(C#N)cnn3c2)cn1 [Example 11, 4-(6-((3aR,6aS)-5-(2-chloro-6-fluorophenylsulfonyl)hexahydropyrrolo[3,4-c]pyrrol-2(1H)-yl)pyridin-3-yl)-6-(1-methyl-1H-pyrazol-4-yl)pyrazolo[1,5-a]pyridine-3-carbonitrile]	≤ 10	
10 to 50	≤ 10	≤ 10	COc1ccc(C(=O)NC23CC4CC(C2)N(c2ccc(-c5cc(OCC(C)(C)O)cn6ncc(C#N)c56)cn2)C(C4)C3)cn1 [Example 138, N-((1R,3S,5s,7s)-2-(5-(3-cyano-6-(2-hydroxy-2-methylpropoxy)pyrazolo[1,5-a]pyridin-4-yl)pyridin-2-yl)-2-azaadamantan-5-yl)-6-methoxynicotinamide]		
≤ 10	≤ 10	≤ 10	CC(=O)NC12CC3CC(C1)N(c1ccc(-c4cc(-c5cnn(C)c5)cn5ncc(C#N)c45)cn1)C(C3)C2 [Example 97, N-((1R,3S,5s,7s)-2-(5-(3-cyano-6-(1-methyl-1H-pyrazol-4-yl)pyrazolo[1,5-a]pyridin-4-yl)pyridin-2-yl)-2-azaadamantan-5-yl)acetamide]	≤ 10	
≤ 10	50 to 100	≤ 10	CC(C)(O)COc1cc(-c2ccc(N3C4CC5CC3CC(NC(=O)c3ncccc3F)(C5)C4)nc2)c2c(C#N)cnn2c1 [Example 137, N-((1R,3S,5s,7s)-2-(5-(3-cyano-6-(2-hydroxy-2-methylpropoxy)pyrazolo[1,5-a]pyridin-4-yl)pyridin-2-yl)-2-azaadamantan-5-yl)-3-fluoropicolinamide]	≤ 10	
50 to 100	10 to 50	≤ 10	COc1ccc(CN[C@]2(C)C[C@H]3CN(c4ccc(-c5cc(-c6cnn(C)c6)cn6ncc(C#N)c56)cn4)C[C@H]3C2)cn1 [Example 152, 4-(6-((3aR,5s,6aS)-5-(((6-methoxypyridin-3-yl)methyl)amino)-5-methylhexahydrocyclopenta[c]pyrrol-2(1H)-yl)pyridin-3-yl)-6-(1-methyl-1H-pyrazol-4-yl)pyrazolo[1,5-a]pyridine-3-carbonitrile]		
≤ 10	≤ 10	≤ 10	Cn1cc(-c2cc(-c3ccc(N4C[C@@H]5C[C@@](C)(NC(=O)c6ncccc6Cl)C[C@@H]5C4)nc3)c3c(C#N)cnn3c2)cn1 [Example 55, 3-chloro-N-((3aR,5s,6aS)-2-(5-(3-cyano-6-(1-methyl-1H-pyrazol-4-yl)pyrazolo[1,5-a]pyridin-4-yl)pyridin-2-yl)-5-methyloctahydro-cyclopenta[c]pyrrol-5-yl)picolinamide]	≤ 10	
≤ 10	≤ 10	≤ 10	Cn1cc(-c2cc(-c3ccc(N4C5CC6CC4CC(NC(=O)OC(C)(C)C)(C6)C5)nc3)c3c(C#N)cnn3c2)cn1 [Example 180]	≤ 10	
≤ 10	10 to 50	≤ 10	Cn1cc(-c2cc(-c3ccc(N4C[C@H]5CN(C(=O)c6ncccc6Cl)C[C@H]5C4)nc3)c3c(C#N)cnn3c2)cn1 [Example 4, 4-(6-((3aR,6aS)-5-(3-chloropicolinoyl)hexahydropyrrolo[3,4-c]pyrrol-2(1H)-yl)pyridin-3-yl)-6-(1-methyl-1H-pyrazol-4-yl)pyrazolo[1,5-a]pyridine-3-carbonitrile]	≤ 10	

From patent US20220220128A1, “HETEROCYCLIC COMPOUNDS AS KINASE INHIBITORS, COMPOSITIONS COMPRISING THE HETEROCYCLIC COMPOUND, AND METHODS OF USE THEREOF” (JS Innopharm (Shanghai) Ltd, priority 2019, published 2022)
